What was measured:
[1] = test system: cancer cell lines, DetermaIO classes; assay: Association of PRISM compound sensitivity with DetermaIO (DTIO) cell line classes; type: cell-based
[2] = test system: cancer cell lines classified IM, MSL, M; assay: PRISM screen compound sensitivity correlated with IM, MSL and M subtype of cell lines (101 gene signature); type: cell-based
[3] = association of compound sensitivity with DetermaIO classes, test data set
[4] = association of compound sensitivity with DetermaIO classes, training data set
[5] = classification of association of compound sensitivity with IM, MSL and M cell line classes; training data set
[6] = correlation of PRISM compound sensitivity with DTIO, test cell set
[7] = correlation of PRISM compound sensitivity with DTIO, training cell set
[8] = correlation of PRISM compound sensitivity with IM subtype correlation; test cell set
[9] = correlation of PRISM compound sensitivity with M subtype correlation; test cell set
[10] = correlation of PRISM compound sensitivity with MSL subtype correlation; test cell set
[11] = subtype (IM, MSL or M) with which PRISM compound sensitivity is negatively correlated; training cell set, 101 gene signature
[12] = correlation of PRISM compound sensitivity with DTIO (DetermaIO), test cell set (188 cell lines)
[13] = correlation of PRISM compound sensitivity with DTIO (DetermaIO), training cell set (371 cell lines)
[14] = correlation of PRISM compound sensitivity with IM subtype correlation; test cell set (188 cell lines)
[15] = correlation of PRISM compound sensitivity with M subtype correlation; test cell set (188 cell lines)
[16] = correlation of PRISM compound sensitivity with MSL subtype correlation; test cell set (188 cell lines)
[17] = subtype (IM, MSL or M) assigned to the compound by negative correlation of PRISM sensitivity with subtype; training cell set (371 cell lines), 101 gene signature
[18] = subtype (IM, MSL or M) with which compound sensitivity is negatively correlated; training cell set (371 cell lines), 101 gene signature
[19] = correlation of compound sensitivity with DTIO, test set
[20] = correlation of compound sensitivity with DTIO, training set
[21] = correlation of compound sensitivity with DetermaIO (DTIO), test set
[22] = correlation of compound sensitivity with DetermaIO (DTIO), training set

Compound	DTIO Corr test [1, 6]	DTIO Corr train [1, 7]	IM Corr test [2, 14]	M Corr test [2, 15]	MSL Corr test [2, 16]	also measured
COc1cc2nccc(Oc3ccc(NC(=O)NC4CC4)c(Cl)c3)c2cc1C(N)=O [K39974922]						DTIO Corr test [1, 3]: 0.002695; DTIO Corr train [1, 4]: −0.03256; TNBCType train [2, 5]: MSL
Nc1cc(F)ccc1NC(=O)/C=C/c1cnn(C/C=C/c2ccccc2)c1 [K61688984]						DTIO Corr test [1, 3]: −0.02541; DTIO Corr train [1, 4]: 0.06912; TNBCType train [2, 5]: MSL
O=C(O)C[C@H](O)C[C@H](O)/C=C/c1c(C2CC2)nc2ccccc2c1-c1ccc(F)cc1 [K75958547]						DTIO Corr test [1, 3]: −0.0837; DTIO Corr train [1, 4]: −0.04476; TNBCType train [2, 5]: MSL
COc1cc(OC)cc(N(CCNC(C)C)c2ccc3ncc(-c4cnn(C)c4)nc3c2)c1 [K84868168]						DTIO Corr test [1, 3]: 0.006092; DTIO Corr train [1, 4]: −0.0744; TNBCType train [2, 5]: MSL
CC[C@H](C)C(=O)O[C@H]1CCC=C2C=C[C@H](C)[C@H](CC[C@@H]3C[C@@H](O)CC(=O)O3)[C@H]21 [K94441233]						DTIO Corr test [1, 3]: −0.09323; DTIO Corr train [1, 4]: −0.00119; TNBCType test ([2]; classification of association of compound sensitivity with IM, MSL and M cell line classes; test data set): MSL; TNBCType train [2, 5]: MSL
COc1cc2nccc(Oc3ccc(NC(=O)Nc4ccc(F)cc4F)c(F)c3)c2cc1OC [KI-8751]	0.03732	0.02512				IM Corr test [2, 8]: 0.1039; M Corr test [2, 9]: −0.09761; MSL Corr test [2, 10]: 0.006054
COc1ccc(/C=C/CCCCOc2ccc(C(=O)c3cccc(C(=O)O)c3)cc2CCC(=O)O)cc1 [LY223982]	−0.04973	0.000351				IM Corr test [2, 8]: 0.01323; M Corr test [2, 9]: 0.005739; MSL Corr test [2, 10]: −0.01914; TNBCType train [2, 11]: MSL
O=C1NC(=O)C(c2cnc3ccccn23)=C1c1cn2c3c(cc(F)cc13)CN(C(=O)N1CCCCC1)CC2 [LY2090314]			−0.01913	0.0417	−0.00714	DTIO Corr test [1, 12]: 0.003829; DTIO Corr train [1, 13]: −0.08353; TNBCType train [2, 17]: MSL
C[C@@H](Oc1ccc2[nH]nc(/C=C/c3cnn(CCO)c3)c2c1)c1c(Cl)cncc1Cl [LY2874455]	−0.0838	−0.1449	−0.01933	−0.0758	−0.1021	
CN(C)C(=O)CCSC(SCCC(=O)O)c1cccc(/C=C/c2ccc3ccc(Cl)cc3n2)c1 (centres unmarked) [MK-571]	−0.00581	0.02432	−0.02535	−0.02967	−0.00401	TNBCType train [2, 18]: MSL
C=CCn1c(=O)c2cnc(Nc3ccc(N4CCN(C)CC4)cc3)nc2n1-c1cccc(C(C)(C)O)n1 [MK-1775]	−0.1537	−0.09981				IM Corr test [2, 8]: −0.1878; M Corr test [2, 9]: 0.1655; MSL Corr test [2, 10]: 0.1175
CN(C[C@@H]1COCCO1)S(=O)(=O)Nc1ccc2ccc3ncc(-c4cnn(C)c4)cc3c(=O)c2c1 [MK-2461]			0.05424	−0.1288	−0.01237	DTIO Corr test [1, 12]: −0.00757; DTIO Corr train [1, 13]: −0.03035; TNBCType train [2, 17]: MSL
Cc1ccc(CNc2ncnc3ccc(-c4ccc(CO)o4)cc23)o1 [ML167]			−0.07672	0.05836	0.01781	DTIO Corr test [1, 12]: −0.03284; DTIO Corr train [1, 13]: −0.07536
COc1ccccc1N1CCN(CCCCN2C(=O)CCC2=O)CC1 [MM77]	−0.06165	−0.1241				IM Corr test [2, 8]: −0.07111; M Corr test [2, 9]: 0.07806; MSL Corr test [2, 10]: 0.009431
O=C(NCCCN1CCCCCC1)C(c1ccccc1)C1CCCCC1 (centres unmarked) [MR-16728]	0.04353	−0.1606	−0.01298	0.0251	0.06487	
O=C(O)/C=C1\CCCc2ccccc2C1O (centres unmarked) [NCS-382]	−0.1705	−0.1343	−0.09394	0.1059	0.05928	

Compound	DTIO Corr test [1, 6]	DTIO Corr train [1, 7]	IM Corr test [2, 14]	M Corr test [2, 15]	MSL Corr test [2, 16]	also measured
CCCN(CCC)CCc1ccc(OC)c(OCCc2ccccc2)c1 [NE-100]	0.02588	0.0932	0.02328	−0.05032	−0.07257	TNBCType train [2, 18]: MSL
O=Nc1ccc(O)c2ncccc12 [NSC-3852]	−0.00012	0.09356	0.06425	−0.1666	−0.09058	DTIO Corr test [1, 19]: −0.00012; DTIO Corr train [1, 20]: 0.09356
CCN(CC)CCCC(C)Nc1nc(C)cc(Nc2ccc3nc(C)cc(N)c3c2)n1 (centres unmarked) [NSC-23766]	0.048	0.0675	−0.00484	−0.06657	0.1332	
CCCCCCCC/C=C\CCCCCCCC(=O)NCCc1ccc(O)c(O)c1 [OLDA]			0.0783	−0.1742	−0.06733	DTIO Corr test ([1]; correlation of PRISM compound sensitivity with DTIO, test cell set (188 cell lines)): 0.08614; DTIO Corr train ([1]; correlation of PRISM compound sensitivity with DTIO, training cell set (371 cell lines)): 0.09584; TNBCType train ([2]; subtype (IM, MSL or M) the PRISM compound sensitivity is associated with; training cell set (371 cell lines); 101 gene signature): MSL
CCCCCCCC/C=C\CCCCCCCC(=O)N[C@@H](CO)Cc1ccc(O)cc1 [OMDM-2]	0.08864	0.00432				IM Corr test [2, 8]: 0.07857; M Corr test [2, 9]: −0.1315; MSL Corr test [2, 10]: −0.1068; TNBCType train [2, 11]: MSL
C#Cc1cccc(Nc2ncnc3cc(OCCOC)c(OCCO)cc23)c1 [OSI-420]			−0.01776	0.1416	0.3027	DTIO Corr test [1, 12]: 0.1184; DTIO Corr train [1, 13]: −0.1185
COc1cc2ncnc(Nc3cccc(Br)c3)c2cc1OC [PD-153035]	−0.03709	−0.1232				DTIO Corr test [1, 19]: −0.03709; DTIO Corr train [1, 20]: −0.1232; IM Corr test [2, 8]: −0.1533; M Corr test [2, 9]: 0.2905; MSL Corr test [2, 10]: 0.3911
CC(=O)NCC(=O)N1[C@@H]2CC[C@H]1c1ccc(Nc3ncc(C(F)(F)F)c(NC4CCC4)n3)cc12 [PF-03814735]			0.01597	−0.07539	−0.04366	DTIO Corr test [1, 12]: −0.05974; DTIO Corr train [1, 13]: −0.01193; TNBCType train [2, 17]: MSL
OCCn1cc(-c2cnc3nnn(Cc4ccc5ncccc5c4)c3n2)cn1 [PF-04217903]			−0.04418	0.07402	0.07771	DTIO Corr test [1, 12]: −0.00139; DTIO Corr train [1, 13]: −0.1163
C[C@H]1Oc2cc(cnc2N)-c2c(nn(C)c2C#N)CN(C)C(=O)c2ccc(F)cc21 [PF-06463922]	−0.00728	−0.07689	−0.1219	−0.02078	−0.05668	TNBCType train [2, 18]: MSL
Cc1ccc([N+](=O)[O-])cc1S(=O)(=O)N(C)/N=C/c1cnc2ccc(Br)cn12 [PIK-75]	−0.1696	−0.1178				IM Corr test [2, 8]: −0.1541; M Corr test [2, 9]: 0.127; MSL Corr test [2, 10]: 0.07706
Cc1ccccc1-n1c(Cn2ncc3c(N)ncnc32)nc2cccc(C)c2c1=O [PIK-293]	0.02467	−0.1397				IM Corr test [2, 8]: −0.06338; M Corr test [2, 9]: 0.066; MSL Corr test [2, 10]: 0.00947
Nc1ncnc2c1c(-c1cnc3[nH]ccc3c1)nn2C1CCCC1 [PP-121]			−0.08606	0.07821	0.02379	DTIO Corr test [1, 12]: −0.08787; DTIO Corr train [1, 13]: −0.1218
N#CSc1cc(SC#N)c(N)nc1N [PR-619]	0.05674	0.0993				DTIO Corr test [1, 21]: 0.05674; DTIO Corr train [1, 22]: 0.0993; IM Corr test [2, 8]: 0.1495; M Corr test [2, 9]: −0.2203; MSL Corr test [2, 10]: −0.1223
O=C(NCc1cccc(O)c1)Nc1nc(-c2ccncc2)cs1 [RKI-1447]	0.08122	0.04633	0.09379	−0.1921	−0.2082	DTIO Corr test [1, 19]: 0.08122; DTIO Corr train [1, 20]: 0.04633; DTIO Corr test [1, 21]: 0.08122; DTIO Corr train [1, 22]: 0.04633; TNBCType train [2, 18]: MSL; TNBCType test ([2]; subtype (IM, MSL, M) with which compound sensitivity correlates, test set): MSL; TNBCType train ([2]; subtype (IM, MSL, M) with which compound sensitivity correlates, training set): MSL; TNBCType test ([2]; subtype (IM, MSL, M) with which compound sensitivity correlates; test set): MSL; TNBCType train ([2]; subtype (IM, MSL, M) with which compound sensitivity correlates; training set): MSL
